Values of other authors in paper PMC8513935.

How the values were obtained:
[1] = log P octanol/water from commercial databases, averaged (the ESI); settings: Octanol (wet), 25 C
[2] = experimental, compiled by the authors from the literature (the ESI cites the sources)
[3] = derived by the authors as gas->solvent minus gas->water (a hypothetical dry solvent; the ESI), not a two-phase measurement

For `C=CCCC`, the log K of transfer, water to solvent [1] is listed as 2.8 log10 K, the log K of transfer, gas to solvent ([2]; 1,2-Dichloroethane, 25 C) is listed as 2.1 log10 K and the log K of transfer, gas to solvent ([2]; Butan-1-ol, 25 C) is listed as 1.94 log10 K. For the same compound, the log K of transfer, gas to solvent ([2]; Butanone, 25 C) was 2.11 log10 K, the log K of transfer, gas to solvent ([2]; Chlorobenzene, 25 C) was 2.21 log10 K and the log K of transfer, gas to solvent ([2]; Cyclohexanone, 25 C) was 2.03 log10 K. For the same compound, the log K of transfer, gas to solvent ([2]; Hexadecane, 25 C) was 2.05 log10 K, the log K of transfer, gas to solvent ([2]; Octan-1-ol, 25 C) was 1.93 log10 K and the log K of transfer, gas to solvent ([2]; Water, 25 C) was -1.23 log10 K.

In the case of `CCCCCC`, the log K of transfer, water to solvent [1] is given as 3.9 log10 K, the log K of transfer, gas to solvent ([2]; 1,2-Dichloroethane, 25 C) is given as 2.51 log10 K and the log K of transfer, gas to solvent ([2]; 2-Methylpropan-1-ol, 25 C) is given as 2.46 log10 K. For the same compound, the log K of transfer, gas to solvent ([2]; 2-Methylpropan-2-ol, 25 C) was 2.44 log10 K, the log K of transfer, gas to solvent ([2]; 3-Methylbutan-1-ol, 25 C) was 2.39 log10 K and the log K of transfer, gas to solvent ([2]; Acetonitrile, 25 C) was 1.96 log10 K. The log K of transfer, gas to solvent ([2]; Benzene, 25 C) was 2.65 log10 K, the log K of transfer, gas to solvent ([2]; Butan-1-ol, 25 C) was 2.44 log10 K and the log K of transfer, gas to solvent ([2]; Butanone, 25 C) was 2.52 log10 K. The log K of transfer, gas to solvent ([2]; Butyronitrile, 25 C) was 2.34 log10 K, the log K of transfer, gas to solvent ([2]; CCl4, 25 C) was 2.98 log10 K and the log K of transfer, gas to solvent ([2]; Chlorobenzene, 25 C) was 2.95 log10 K. For the same compound, the log K of transfer, gas to solvent ([2]; Chloroform, 25 C) was 2.87 log10 K, the log K of transfer, gas to solvent ([2]; Cyclohexanone, 25 C) was 2.44 log10 K and the log K of transfer, gas to solvent ([2]; Di-n-butyl ether, 25 C) was 2.82 log10 K. For the same compound, the log K of transfer, gas to solvent ([2]; Dichloromethane, 25 C) was 2.75 log10 K, the log K of transfer, gas to solvent ([2]; Ethanol, 25 C) was 2.24 log10 K and the log K of transfer, gas to solvent ([2]; Heptan-1-ol, 25 C) was 2.44 log10 K. For the same compound, the log K of transfer, gas to solvent ([2]; Hexadecane, 25 C) was 2.67 log10 K, the log K of transfer, gas to solvent ([2]; Hexan-1-ol, 25 C) was 2.48 log10 K and the log K of transfer, gas to solvent ([2]; Hexane, 25 C) was 2.97 log10 K. For the same compound, the log K of transfer, gas to solvent ([2]; Methanol, 25 C) was 2.05 log10 K, the log K of transfer, gas to solvent ([2]; Octan-1-ol, 25 C) was 2.44 log10 K and the log K of transfer, gas to solvent ([2]; Pentan-1-ol, 25 C) was 2.44 log10 K. For the same compound, the log K of transfer, gas to solvent ([2]; Perfluoroalkane, 25 C) was 1.88 log10 K, the log K of transfer, gas to solvent ([2]; Propan-1-ol, 25 C) was 2.28 log10 K and the log K of transfer, gas to solvent ([2]; Propan-2-ol, 25 C) was 2.3 log10 K. For the same compound, the log K of transfer, gas to solvent ([2]; Propanone, 25 C) was 2.37 log10 K, the log K of transfer, gas to solvent ([2]; Propionitrile, 25 C) was 2.22 log10 K and the log K of transfer, gas to solvent ([2]; Tetrahydrofuran, 25 C) was 2.84 log10 K. The log K of transfer, gas to solvent ([2]; Toluene, 25 C) was 2.82 log10 K and the log K of transfer, gas to solvent ([2]; Water, 25 C) was -1.82 log10 K.

For `c1ccccc1`, the log K of transfer, water to solvent [1] is given as 2.08 log10 K, the log K of transfer, water to solvent ([3]; 1,2-Dichloroethane, 25 C) is given as 2.69 log10 K and the log K of transfer, water to solvent ([3]; 2-Methylpropan-1-ol, 25 C) is given as 2.09 log10 K. The log K of transfer, water to solvent ([3]; 2-Methylpropan-2-ol, 25 C) was 2.09 log10 K, the log K of transfer, water to solvent ([3]; Acetone, 25 C) was 2.58 log10 K and the log K of transfer, water to solvent ([3]; Acetonitrile, 25 C) was 2.43 log10 K. The log K of transfer, water to solvent ([3]; Benzene, 25 C) was 2.71 log10 K, the log K of transfer, water to solvent ([3]; Butan-1-ol, 25 C) was 2.24 log10 K and the log K of transfer, water to solvent ([3]; Butan-2-ol, 25 C) was 2.14 log10 K. For the same compound, the log K of transfer, water to solvent ([3]; Butanone, 25 C) was 2.66 log10 K, the log K of transfer, water to solvent ([3]; Butyronitrile, 25 C) was 2.6 log10 K and the log K of transfer, water to solvent ([3]; CCl4, 25 C) was 2.61 log10 K. For the same compound, the log K of transfer, water to solvent ([3]; Chlorobenzene, 25 C) was 2.61 log10 K, the log K of transfer, water to solvent ([3]; Chloroform, 25 C) was 2.76 log10 K and the log K of transfer, water to solvent ([3]; Cyclohexane, 25 C) was 2.3 log10 K. For the same compound, the log K of transfer, water to solvent ([3]; Cyclohexanone, 25 C) was 2.67 log10 K, the log K of transfer, water to solvent ([3]; Decan-1-ol, 25 C) was 2 log10 K and the log K of transfer, water to solvent ([3]; Di-n-butyl ether, 25 C) was 2.38 log10 K. For the same compound, the log K of transfer, water to solvent ([3]; Dichloromethane, 25 C) was 2.89 log10 K, the log K of transfer, water to solvent ([3]; Ethanol, 25 C) was 2.15 log10 K and the log K of transfer, water to solvent ([3]; Heptan-1-ol, 25 C) was 2.18 log10 K. The log K of transfer, water to solvent ([3]; Hexadecane, 25 C) was 2.15 log10 K, the log K of transfer, water to solvent ([3]; Hexane, 25 C) was 2.31 log10 K and the log K of transfer, water to solvent ([3]; Methanol, 25 C) was 2.14 log10 K. For the same compound, the log K of transfer, water to solvent ([3]; Octan-1-ol(dry), 25 C) was 2.17 log10 K, the log K of transfer, water to solvent ([3]; Pentan-1-ol, 25 C) was 2.2 log10 K and the log K of transfer, water to solvent ([3]; Propan-1-ol, 25 C) was 2.15 log10 K. The log K of transfer, water to solvent ([3]; Propan-2-ol, 25 C) was 2.04 log10 K, the log K of transfer, water to solvent ([3]; Propionitrile, 25 C) was 2.6 log10 K and the log K of transfer, water to solvent ([3]; Tetrahydrofuran, 25 C) was 2.85 log10 K. The log K of transfer, water to solvent ([3]; Toluene, 25 C) was 2.64 log10 K.

In the case of `CC1CCCCC1`, the log K of transfer, water to solvent [1] is listed as 3.88 log10 K, the log K of transfer, gas to solvent ([2]; Butanone, 25 C) is listed as 3.02 log10 K and the log K of transfer, gas to solvent ([2]; Butyronitrile, 25 C) is listed as 2.99 log10 K. For the same compound, the log K of transfer, gas to solvent ([2]; Heptan-1-ol, 25 C) was 3.05 log10 K, the log K of transfer, gas to solvent ([2]; Hexadecane, 25 C) was 3.32 log10 K and the log K of transfer, gas to solvent ([2]; Octan-1-ol, 25 C) was 3.05 log10 K. For the same compound, the log K of transfer, gas to solvent ([2]; Propan-2-ol, 25 C) was 2.78 log10 K, the log K of transfer, gas to solvent ([2]; Propanone, 25 C) was 2.88 log10 K and the log K of transfer, gas to solvent ([2]; Propionitrile, 25 C) was 2.85 log10 K. The log K of transfer, gas to solvent ([2]; Tetrahydrofuran, 25 C) was 3.42 log10 K and the log K of transfer, gas to solvent ([2]; Water, 25 C) was -1.25 log10 K.
